Values quoted from earlier work as cited in patent US8759098B2, “Method for cloning pluripotent stem cells” (Boston Biomedical Research Institute, Inc., priority 2009, dated 2014).

How the values were obtained:
human adult tissue = settings: used singly and in combination; Lin et al. 2009; cited from earlier work
somatic cells = settings: low oxygen conditions; Page et al. 2009; cited from earlier work

In the case of NC(=O)c1ccc(-c2nc(-c3ccccn3)c(-c3ccc4c(c3)OCO4)[nH]2)cc1 [SB43142], the “efficiency of creating stem cells from human adult tissue” value (human adult tissue) is listed as “dramatically improve the efficiency”.
For FGF2: fibroblast growth factor 2, the “expression of pluripotency inducing genes” value (somatic cells) is listed as “increased”.
